This is an account of results in article PMC7363588, “Mapping of the FGF14:Nav1.6 complex interface reveals FLPK as a functionally active peptide modulating excitability” (Physiological Reports, 2020).

The experiment deals with persistent sodium current (I NaP) from MSNs in the nucleus accumbens. As to the kind of experiment: Brain slice voltage-clamp: persistent Na^+ current (I NaP) in MSNs. The class given is cell-based, male C57BL6/J mice. How it is done:
Brain slices from male C57BL6/J mice aged 28–45 days were prepared to contain the nucleus accumbens (NAc). Mice were anesthetized with Isoflurane (Baxter, Deerfield, IL) and brains extracted following decapitation. Brains were sliced with a vibratome (Leica Microsystems, Wetzlar, Germany) to achieve 300 μm coronal slices. Brains sliced in extracellular salts; consisting of the following (mM): Tris‐HCl 72, Tris‐Base18, NaH2PO4 1.2, KCl 2.5, HEPES 20, sucrose 20, NaHCO3 25, glucose 25, MgSO4 10, Na‐pyruvate 3, Na‐ascorbate 5 and CaCl2 0.5 (Sigma‐Aldrich, St. Louis, MO); 300–310 mOsm, pH 7.4 and was continuously oxygenated (mixture of 95%/5% O2/CO2). […] Evoked action potentials with a range of current injections from 10 pA to 220 pA with 800 ms every 10 pA were measured and number of action potentials, instantaneous frequency, and other electrical parameters were determined. […] The voltage‐dependence of I NaP was determined using standard protocols (Yue, Remy, Su, Beck, & Yaari, 2005). […] Membrane capacitance was calculated using the equation: capacitance = membrane time constant/input resistance (Meitzen, Weaver, Brenowitz, & Perkel, 2009). The membrane input resistance was measured by a series of 600 ms hyperpolarizing current steps from −50 to 0 pA, step 10 pA with 1 s interval. […]

Entries after “also recorded” stand apart in the source; their conditions may differ. Peptide text beside a SMILES is read from it.

As to `CC(=O)N[C@@H](Cc1ccccc1)C(=O)N[C@@H](CC(C)C)C(=O)N1CCC[C@H]1C(=O)N[C@@H](CCCCN)C(N)=O` [FLPK] (Ac-FLPK-NH2), for the setting “50 µM FLPK vs 0.1% DMSO”, the “effect on I NaP” value is “increase in persistent sodium current; also recorded: potentiated persistent Na^+ currents”. In addition, the “persistent sodium current (I NaP)” value (50 µM FLPK, slow voltage ramps (50 mV/s), TTX-subtracted, control 111.4 ± 15.7 pA, p < .03, n = 14) is −158.2 ± 14.2 pA.
